From ChEMBL document CHEMBL1201862, “PubChem BioAssay data set” (2004)
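Test compounds were applied to cells in 96-well plates for 48 hours at 5 doses. The concentration for 50% growth inhibition is given as GI50.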 The source made the active and inactive calls. Rule as the data show it: active = GI50 up to about 1.1 µM and inactive = higher.

Key:
Experiment in all cases: inhibition of tumour cell growth, NCI panel, 48 h
A498 = system: A498
ACHN = system: ACHN
EKVX = system: EKVX
HCT-116 = system: HCT-116
HL-60 = system: HL-60
HOP-92 = system: HOP-92
IGROV-1 = system: IGROV-1
OVCAR-3 = system: OVCAR-3
OVCAR-4 = system: OVCAR-4
OVCAR-8 = system: OVCAR-8
SF-268 = system: SF-268
SW-620 = system: SW-620
TK-10 = system: TK-10
U-251 = system: U-251
NCI-H226 = system: NCI-H226
RXF 393 = system: RXF 393
SNB-75 = system: SNB-75

Measured: GI50

COc1ccc2c3c1C(=O)CCC3CO2 (configuration not stated)
inactive: A498 > 100 µM | ACHN > 100 µM | EKVX 91 µM | HCT-116 > 100 µM | HL-60 > 100 µM | HOP-92 > 100 µM | IGROV-1 > 100 µM | OVCAR-3 > 100 µM | OVCAR-4 > 100 µM | OVCAR-8 > 100 µM | SF-268 > 100 µM | SW-620 > 100 µM | TK-10 > 100 µM | U-251 > 100 µM

CCOc1cccc2ccc[n+](CC)c12
inactive: ACHN > 100 µM | EKVX > 100 µM | HCT-116 37.1 µM | HOP-92 61 µM | IGROV-1 > 100 µM | NCI-H226 > 100 µM | OVCAR-3 56.1 µM | OVCAR-4 55.1 µM | OVCAR-8 25.2 µM | RXF 393 > 100 µM | SF-268 12.2 µM | SNB-75 > 100 µM | SW-620 81.3 µM | TK-10 > 100 µM

Cc1cc2c(=O)cc(-c3ccc(F)cc3)oc2c(C(=O)O)c1C
inactive: ACHN > 100 µM | EKVX > 100 µM | HCT-116 > 100 µM | IGROV-1 > 100 µM | NCI-H226 > 100 µM | OVCAR-3 > 100 µM | OVCAR-4 > 100 µM | OVCAR-8 > 100 µM | RXF 393 > 100 µM | SF-268 > 100 µM | SNB-75 > 100 µM | SW-620 > 100 µM | TK-10 > 100 µM | U-251 > 100 µM

C[C@@]12CCCC(=O)N1[C@@H](CO)C(c1ccccc1)O2 (some centres not stated)
inactive: A498 > 100 µM | ACHN > 100 µM | EKVX > 100 µM | HCT-116 > 100 µM | HOP-92 > 100 µM | IGROV-1 > 100 µM | OVCAR-3 > 100 µM | OVCAR-4 > 100 µM | OVCAR-8 > 100 µM | RXF 393 > 100 µM | SF-268 > 100 µM | SNB-75 > 100 µM | SW-620 > 100 µM | TK-10 > 100 µM | U-251 > 100 µM

CCO/C=C1\N=C(C(Cl)c2ccccc2)OC1=O (configuration not stated)
inactive: A498 > 100 µM | ACHN > 100 µM | EKVX > 100 µM | HL-60 > 100 µM | HOP-92 > 100 µM | IGROV-1 > 100 µM | NCI-H226 > 100 µM | OVCAR-3 > 100 µM | OVCAR-4 > 100 µM | OVCAR-8 > 100 µM | RXF 393 > 100 µM | SF-268 > 100 µM | SNB-75 > 100 µM | SW-620 > 100 µM | TK-10 > 100 µM
